# Laboratory results reported in US9408871B2, “Methods for inhibiting complement activation and uses thereof” (THE UNIVERSITY OF BRITISH COLUMBIA, priority 2013, dated 2016).
# What was measured:
# [1] = tested on: terminal pathway (TP) of complement; assay: serum-based terminal pathway (TP) hemolytic assay (2% NHS, C5b,6, chicken erythrocytes); format: cell-based, human; conditions: 100 μM (based on the monomeric form)
# Description: Erythrocyte lysis assays were used to measure complement-mediated hemolytic activity. Erythrocyte (RBC) lysis assays as previously described^18,37 were used to measure complement activity. For alternative pathway assays and for total hemolytic activity assays, unsensitized rabbit erythrocytes were used. Chicken erythrocytes were used for the terminal pathway assays.
# Erythrocytes were washed three times in GVB with the reaction buffers as indicated, and counted using the Advia 120 Hematology System from Siemens (Siemens, Erlangen, Germany). Reactions in 300 μL were allowed to proceed for 30 min at 37° C., after which unlysed cells were pelleted by centrifugation at 600×g. Erythrocyte lysis, reflected by the released hemoglobin in the supernatant, was quantified by measuring the absorbance at 405 nm using the Mithras LB 940 microplate reader from Berthold Technologies (Bad Wildbad, Germany). Percent lysis was determined relative to the control of 100% lysis with H2O. For total hemolytic and terminal pathway (TP) assays, the concentrations of NHS and C5b,6 to initiate complement activation were established from pilot studies to obtain ˜70-80% erythrocyte lysis at 30 min.
# For serum-based terminal pathway (TP) hemolytic assays, components were diluted in GVB containing 10 mM EDTA (GVB-E), the latter added to prevent upstream complement activation and generation of endogenous C5b,6. 2% NHS was used as the source of C7, C8, and C9, and hemolysis of chicken erythrocytes (cRBC) (3.3×10^8 cells/mL) was initiated by addition of exogenous purified C5b,6, the concentration of which was determined from pilot studies to yield ˜70-80% lysis at 30 min. No C5b,6 activity was detected in the NHS prior to initiating the reaction. For some experiments, instead of NHS, purified terminal pathway complement components were used in the TP assays. In these assays, in a final volume of 300 uL GVB, lysis was achieved by the sequential addition of the following components: cRBC (3.3×10^8 cells/mL), C5b,6 (20 μM), C7 (15 nM), C8 (10 nM), and C9 (25 nM). The unlysed cell pellet was removed by centrifugation and lysis was measured immediately after the 30-minute reaction. A standard curve for the terminal pathway assay using serum as the source of complement (FIG. 2) was generated using a fixed serum concentration at 2%, and increasing concentrations of purified C5b,6 dose-dependently lysed chicken erythrocytes after 30 min at 37° C. […] of purified C5b,6 was therefore used to fix baseline lysis at ˜80% to allow assessment of the inhibitory effects of polyphosphate in serum.
# TP activity in NHS(2%), measured by lysis of cRBC, was initiated by adding a limiting amount of exogenous purified C5b,6 (250 pM) to achieve 70-80% lysis after 30 min. A molar excess of EDTA was used to prevent upstream activation of complement and generation of endogenous C5b,6. In the absence of C5b,6, there was no detectable complement-mediated cRBC lysis. P1 at concentrations ranging from 0.1 to 1000 μM, had no effect on complement-mediated hemolysis in NHS via the TP (FIG. 5A). By contrast, polyphosphate>1000 inhibited the TP in serum in a concentration-dependent manner, with an IC50 of ˜10 μM polyphosphate>1000 (dotted lines) (calculated based on monomeric phosphate).
# [2] = molecular target: T1, C1-esterase inhibitor (C1-inh) (Homo sapiens, UniProt P05155); assay: C1s-mediated cleavage of C4 in the presence of C1-inh (SDS-PAGE); format: biochemical; conditions: 10-500 μM, 2.5 nM C1-inh
# T1 sequence (P05155 23-500): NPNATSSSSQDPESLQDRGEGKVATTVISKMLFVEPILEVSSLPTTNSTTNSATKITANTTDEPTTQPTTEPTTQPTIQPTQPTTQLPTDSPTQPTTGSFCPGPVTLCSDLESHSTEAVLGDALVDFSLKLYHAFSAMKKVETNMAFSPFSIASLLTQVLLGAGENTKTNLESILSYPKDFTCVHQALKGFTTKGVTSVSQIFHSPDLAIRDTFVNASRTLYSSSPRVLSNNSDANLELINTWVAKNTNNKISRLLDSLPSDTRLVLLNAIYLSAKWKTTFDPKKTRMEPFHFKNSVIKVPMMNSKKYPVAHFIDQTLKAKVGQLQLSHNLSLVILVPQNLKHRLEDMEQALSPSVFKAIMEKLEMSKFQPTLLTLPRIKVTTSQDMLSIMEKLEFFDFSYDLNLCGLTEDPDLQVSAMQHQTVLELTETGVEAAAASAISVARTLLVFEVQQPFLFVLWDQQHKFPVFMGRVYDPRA
# Experimental: We tested whether polyP affects the inhibitory properties of C1-inh on C1s-mediated cleavage and activation of complement factor C4 and C2. SDS-PAGE followed by coomassie staining of gels was used to monitor cleavage of C4 by C1s in the presence/absence of C1-inh and/or polyP in a purified system.
# 2.5 nM C1s (reaction 1) or 2.5 nM C1-inh (reaction 2), and 300 μM polyP were incubated in 20 mM Hepes, 0.15 M NaCl, pH 7.5, 0.01% Tween buffer for 90 minutes at 37° C. 2.5 nM C1-inh (reaction 1) or 0.5 nM C1s (reaction 2) was added and incubated for 30 minutes at 37° C. 1.5 μM C4 was added and incubated for 5 minutes at 37° C. The reactions were quenched with 5× loading buffer and β-ME. Samples were taken and run on an SDS-PAGE 8% gel (FIG. 15B).
# Briefly, 2.5 nM C1s with 5-300 μM of polyP130 (reaction 1; FIG. 16A) or polyP1000 (reaction 2; FIG. 16B) were incubated in 20 mM Hepes, 0.15 M NaCl, pH 7.5, 0.01% Tween buffer for 90 minutes at 37° C. 2.5 nM C1s was added and incubated for 30 minutes at 37° C. 1.5 μM C4 was added and incubated for 5 minutes at 37° C. The reactions were quenched with 5× loading buffer and β-ME.
# Briefly, 2.5 nM C1s with 10-500 μM of polyP14, polyP60, polyP130, polyP1000 were incubated in 20 mM Hepes, 0.15 M NaCl, pH 7.5, 0.01% Tween buffer for 90 minutes at 37° C. 2.5 nM C1s was added and incubated for 30 minutes at 37° C. […]
smiles,measurement,setting,value
"O=P([O-])([O-])OP(=O)([O-])[O-].[Na+].[Na+].[Na+].[Na+] [P2, diphosphate (Na4P2O7)]",effect on TP hemolytic activity at equivalent concentration,[1],had no effect
same,effect of polyP size on C1-inh (C4 cleavage by C1s),[2],had no effect on C1-inh
"O=P([O-])([O-])OP(=O)([O-])OP(=O)([O-])[O-].[Na+].[Na+].[Na+].[Na+].[Na+] [P3, triphosphate (Na5P3O10)]",effect on TP hemolytic activity at equivalent concentration,[1],had no effect
same,effect of polyP size on C1-inh (C4 cleavage by C1s),[2],had no effect on C1-inh
